Results reported in patent US20260217701A1, “SELECTIVE BET INHIBITORS AND USES THEREOF” (Tay Therapeutics Limited, priority 2022, published 2026).

Target: T1, BRD4 BD2 (Homo sapiens, UniProt O60885)
T1 construct: HEK293 cells were transfected using NanoLuc-BRD4-BD1 or NanoLuc-BRD4-BD2 fusion vectors
Test: NanoBRET bromodomain assay, NanoLuc-BRD4-BD2 in HEK293 cells
Type: binding
Settings: nanoBRET assay, given as symbol only
Procedure: Plates were then incubated at 37° C.+5% CO2 incubator for 2 hours.
Fold Selectivity Calculated (IC50 BD1/IC50 BD2).

CSCCn1cc(-c2ccccc2)c(-c2cn(C)c(=O)c3[nH]c(-c4cnn(C(F)(F)F)c4)cc23)cc1=O [Compound C, 6-methyl-4-(1-(2-(methylthio)ethyl)-2-oxo-5-phenyl-1,2-dihydropyridin-4-yl)-2-(1-(trifluoromethyl)-1H-pyrazol-4-yl)-1,6-dihydro-7H-pyrrolo[2,3-c]pyridin-7-one]
Selectivity (BD1/BD2) (higher number denotes higher selectivity): >>>> | BD2 (lower number denotes higher potency): <
